The first data set is described as follows: Second oil phase obtained by adding NaCl to the water phase (Example 4). In kind it is physicochemical. To be noted: after separating oil phases I and II. The protocol:
Cross linked polystyrene was used as adsorbent material. The volume flux for loading the adsorbent was 300 ml/min.
The adsorbent was heated to 150 °C, the temperature of the applied water steam was 160 °C.
The water steam flux was 10 g/min and was applied for 100 min.
The oil and water phases were separated.
A second oil phase was separated and was collected.
As for `CCC(C)COC(C)=O` (centres unmarked) [2-methyl butyl acetate], the “Loss in the water phase” value is 0,2%.
With `CCC/C=C/COC(C)=O` [trans-2-hexenyl acetate], the “Loss in the water phase” value is given as 0,0%.
For the compound `CCCCCCCCO` [octanol], the “Loss in the water phase” value is on record as 0,0%.
`CCCCCCO` [hexanol]: the “Loss in the water phase” value is 1,8%.
With `CC/C=C\CCOC(C)=O` [cis-3-hexenyl acetate], the “Loss in the water phase” value is 0,0%.
As to `CCCCOC(C)=O` [butyl acetate], the “Loss in the water phase” value is recorded as 1,4%.

Assay in another data set: not given
To be noted: theoretical solubility, values known in the literature; cited from earlier work.
For the compound `O=P([O-])([O-])OP(=O)([O-])OP(=O)([O-])[O-].[Na+].[Na+].[Na+].[Na+].[Na+]` [Triphosphate (Na)], the “Solubility in water (%)” value was 14.5%.
With `[Cl-].[K+]` [Potassium chloride], the “Solubility in water (%)” value is 34.7%.

The next data set in a line: Influence of the amount of NaCl on the distribution between oil phase and water phase (Example 5). In kind it is physicochemical. To be noted: NaCl 0%.
Take `CCC(C)COC(C)=O` (centres unmarked) [2-methyl butyl acetate]: the “Distribution in [%] between oil phase and water phase after condensation: Oil phase” value came to 79.3%; the “Distribution in [%] between oil phase and water phase after condensation: Water phase” value is given as 20.7%.
The like results for `CCC/C=C/COC(C)=O` [trans-2-hexenyl acetate] were, in that order, 100% and 0%.
Regarding `CCCCCCCCO` [octanol], the “Distribution in [%] between oil phase and water phase after condensation: Oil phase” value was found to be 91.3%; the “Distribution in [%] between oil phase and water phase after condensation: Water phase” value is 8.7%.
The corresponding values for `CCCCCCO` [hexanol] are 59.2% and 40.8%.
Turning to `CC/C=C\CCOC(C)=O` [cis-3-hexenyl acetate], the “Distribution in [%] between oil phase and water phase after condensation: Oil phase” value is reported as 100%; the “Distribution in [%] between oil phase and water phase after condensation: Water phase” value is 0%.
On to `CCCCOC(C)=O` [butyl acetate], for which the “Distribution in [%] between oil phase and water phase after condensation: Oil phase” value stood at 53.5%; the “Distribution in [%] between oil phase and water phase after condensation: Water phase” value is given as 46.5%.

The same data set, now with this note: NaCl 27.8 %.
For `CCC(C)COC(C)=O` (centres unmarked) [2-methyl butyl acetate], the “Distribution in [%] between oil phase and water phase after condensation: Oil phase” value was determined as 97.1%; the “Distribution in [%] between oil phase and water phase after condensation: Water phase” value came out at 2.9%.
The like results for `CCC/C=C/COC(C)=O` [trans-2-hexenyl acetate] were, in that order, 97.2% and 2.8%.
Take `CCCCCCCCO` [octanol]: the “Distribution in [%] between oil phase and water phase after condensation: Oil phase” value is listed as 100%; the “Distribution in [%] between oil phase and water phase after condensation: Water phase” value is 0%.
Turning to `CCCCCCO` [hexanol], the “Distribution in [%] between oil phase and water phase after condensation: Oil phase” value is 89.6%; the “Distribution in [%] between oil phase and water phase after condensation: Water phase” value is 10.4%.
In the case of `CC/C=C\CCOC(C)=O` [cis-3-hexenyl acetate], the “Distribution in [%] between oil phase and water phase after condensation: Oil phase” value came out at 100%; the “Distribution in [%] between oil phase and water phase after condensation: Water phase” value is reported as 0%.
The like results for `CCCCOC(C)=O` [butyl acetate] were, in that order, 85.6% and 14.4%.

Still in this data set, the particulars now being: NaCl 41.67%.
Regarding `CCC(C)COC(C)=O` (centres unmarked) [2-methyl butyl acetate], the “Distribution in [%] between oil phase and water phase after condensation: Oil phase” value came out at 98.6%; the “Distribution in [%] between oil phase and water phase after condensation: Water phase” value turned out to be 1.4%.
For the compound `CCC/C=C/COC(C)=O` [trans-2-hexenyl acetate], the “Distribution in [%] between oil phase and water phase after condensation: Oil phase” value is on record as 100%; the “Distribution in [%] between oil phase and water phase after condensation: Water phase” value is listed as 0%.
As to `CCCCCCCCO` [octanol], the “Distribution in [%] between oil phase and water phase after condensation: Oil phase” value is 100%; the “Distribution in [%] between oil phase and water phase after condensation: Water phase” value turned out to be 0%.
Take `CCCCCCO` [hexanol]: the “Distribution in [%] between oil phase and water phase after condensation: Oil phase” value was determined as 93.8%; the “Distribution in [%] between oil phase and water phase after condensation: Water phase” value is listed as 6.2%.
As to `CC/C=C\CCOC(C)=O` [cis-3-hexenyl acetate], the “Distribution in [%] between oil phase and water phase after condensation: Oil phase” value stood at 100%; the “Distribution in [%] between oil phase and water phase after condensation: Water phase” value amounted to 0%.
On to `CCCCOC(C)=O` [butyl acetate], for which the “Distribution in [%] between oil phase and water phase after condensation: Oil phase” value is recorded as 92.5%; the “Distribution in [%] between oil phase and water phase after condensation: Water phase” value is listed as 7.5%.

Staying with this data set, now noted: NaCl 55.56 %.
For the compound `CCC(C)COC(C)=O` (centres unmarked) [2-methyl butyl acetate], the “Distribution in [%] between oil phase and water phase after condensation: Oil phase” value is listed as 99.2%; the “Distribution in [%] between oil phase and water phase after condensation: Water phase” value was determined as 0.8%.
Turning to `CCC/C=C/COC(C)=O` [trans-2-hexenyl acetate], the “Distribution in [%] between oil phase and water phase after condensation: Oil phase” value is on record as 100%; the “Distribution in [%] between oil phase and water phase after condensation: Water phase” value is 0%.
As to `CCCCCCCCO` [octanol], the “Distribution in [%] between oil phase and water phase after condensation: Oil phase” value is on record as 100%; the “Distribution in [%] between oil phase and water phase after condensation: Water phase” value was 0%.
On to `CCCCCCO` [hexanol], for which the “Distribution in [%] between oil phase and water phase after condensation: Oil phase” value was 96.2%; the “Distribution in [%] between oil phase and water phase after condensation: Water phase” value was found to be 3.8%.
Regarding `CC/C=C\CCOC(C)=O` [cis-3-hexenyl acetate], the “Distribution in [%] between oil phase and water phase after condensation: Oil phase” value is recorded as 100%; the “Distribution in [%] between oil phase and water phase after condensation: Water phase” value is given as 0%.
The like results for `CCCCOC(C)=O` [butyl acetate] were, in that order, 95% and 5%.

The same data set, now with this note: NaCl 69.44 %.
`CCC(C)COC(C)=O` (centres unmarked) [2-methyl butyl acetate]: the “Distribution in [%] between oil phase and water phase after condensation: Oil phase” value is listed as 99.7%; the “Distribution in [%] between oil phase and water phase after condensation: Water phase” value stood at 0.3%.
In the case of `CCC/C=C/COC(C)=O` [trans-2-hexenyl acetate], the “Distribution in [%] between oil phase and water phase after condensation: Oil phase” value is recorded as 100%; the “Distribution in [%] between oil phase and water phase after condensation: Water phase” value is 0%.
`CCCCCCCCO` [octanol]: the “Distribution in [%] between oil phase and water phase after condensation: Oil phase” value amounted to 100%; the “Distribution in [%] between oil phase and water phase after condensation: Water phase” value came out at 0%.
Regarding `CCCCCCO` [hexanol], the “Distribution in [%] between oil phase and water phase after condensation: Oil phase” value is 97.5%; the “Distribution in [%] between oil phase and water phase after condensation: Water phase” value is reported as 2.5%.
The corresponding values for `CC/C=C\CCOC(C)=O` [cis-3-hexenyl acetate] are 100% and 0%.
Turning to `CCCCOC(C)=O` [butyl acetate], the “Distribution in [%] between oil phase and water phase after condensation: Oil phase” value worked out at 97.5%; the “Distribution in [%] between oil phase and water phase after condensation: Water phase” value came out at 2.5%.

The same data set, now with this note: NaCl 83.33 %.
As for `CCC(C)COC(C)=O` (centres unmarked) [2-methyl butyl acetate], the “Distribution in [%] between oil phase and water phase after condensation: Oil phase” value was 99.8%; the “Distribution in [%] between oil phase and water phase after condensation: Water phase” value turned out to be 0.2%.
For `CCC/C=C/COC(C)=O` [trans-2-hexenyl acetate], the “Distribution in [%] between oil phase and water phase after condensation: Oil phase” value worked out at 100%; the “Distribution in [%] between oil phase and water phase after condensation: Water phase” value amounted to 0%.
In the case of `CCCCCCCCO` [octanol], the “Distribution in [%] between oil phase and water phase after condensation: Oil phase” value turned out to be 100%; the “Distribution in [%] between oil phase and water phase after condensation: Water phase” value was 0%.
For the compound `CCCCCCO` [hexanol], the “Distribution in [%] between oil phase and water phase after condensation: Oil phase” value amounted to 98.2%; the “Distribution in [%] between oil phase and water phase after condensation: Water phase” value amounted to 1.8%.
Turning to `CC/C=C\CCOC(C)=O` [cis-3-hexenyl acetate], the “Distribution in [%] between oil phase and water phase after condensation: Oil phase” value is on record as 100%; the “Distribution in [%] between oil phase and water phase after condensation: Water phase” value was found to be 0%.
With `CCCCOC(C)=O` [butyl acetate], the “Distribution in [%] between oil phase and water phase after condensation: Oil phase” value is 98.6%; the “Distribution in [%] between oil phase and water phase after condensation: Water phase” value was found to be 1.4%.

The values above are taken from patent EP3959993B1, “METHOD FOR SOLVENT FREE PRODUCTION OF AROMA CONCENTRATES” (Symrise AG, priority 2020, dated 2022).
